According to patent US11873317B2, “Galectin-3 inhibiting c-glycosides” (GLYCOMIMETICS, INC., priority 2018, dated 2024):

Biological target: T1, galectin-3 (Homo sapiens, UniProt P17931)
T1 construct: purchased IBL IBATGP0414
Assay: Galectin-3 Activity ELISA assay: inhibition of binding of galectin-3 to a Galβ1-3GlcNAc carbohydrate structure
Details: galectin-3 binding to immobilized Galβ1-3GlcNAc polymer, A450 readout, read-out: IC50 Galectin-3 Antagonist Activity
Experimental: Galectin-3 antagonists were evaluated for their ability to inhibit binding of galectin-3 to a Galβ1-3GlcNAc carbohydrate structure. The detailed protocol was as follows. A 1 ug/mL suspension of a Galβ1-3GlcNAcβ1-3Galβ1-4GcNAcβ-PAA-biotin polymer (Glycotech, catalog number 01-096) was prepared. A 100 uL aliquot of the polymer was added to the wells of a 96-well streptavidin-coated plate (R&D Systems, catalog number CP004). A 100 uL aliquot of IX Tris Buffered Saline (TBS, Sigma, catalog number T5912-10×) was added to control wells. The polymer was allowed to bind to the streptavidin-coated wells for 1.5 hours at room temperature. The contents of the wells were discarded and 200 uL of 1×TBS containing 1% bovine serum albumin (BSA) was added to each well as a blocking reagent and the plate was kept at room temperature for 30 minutes. The wells were washed three times with IX TBS containing 0.1% BSA. A serial dilution of test compounds was prepared in a separate V-bottom plate (Corning, catalog number 3897). A 75 uL aliquot of the highest concentration of the compound to be tested was added to the first well in a column of the V-bottom plate then 15 ul were serially transferred into 60 uL IX TBS through the remaining wells in the column to generate a 1 to 5 serial dilution. A 60 uL aliquot of 2 ug/mL galectin-3 (IBL, catalog number IBATGP0414) was added to each well in the V-bottom plate. A 100 uL aliquot of the galectin-3/test compound mixture was transferred from the V-bottom plate into the assay plate containing the Galβ1-3GlcNAc polymer. Four sets of control wells in the assay plate were prepared in duplicate containing 1) both Galβ1-3GlcNAc polymer and galectin-3, 2) neither the polymer nor galectin-3, 3) galectin-3 only, no polymer, or 4) polymer only, no galectin-3. The plate was gently rocked for 1.5 hours at room temperature. The wells were washed four times with TBS/0.1% BSA. A 100 uL aliquot of anti-galectin-3 antibody conjugated to horse radish peroxidase (R&D Systems, from DGAL30 kit) was added to each well and the plate was kept at room temperature for 1 hour. The wells were washed four times with TBS/0.1% BSA. A 100 uL aliquot of TMB substrate solution was added to each well. The TMB substrate solution was prepared by making a 1:1 mixture of TMB Peroxidase Substrate (KPL, catalog number 5120-0048) and Peroxidase Substrate Solution B (KPL, catalog number 5120-0037). The plate was kept at room temperature for 10 to 20 minutes. The color development was stopped by adding 100 uL 10% phosphoric acid (RICCA Chemical Co., catalog number 5850-16). The absorbance at 450 nm (A450) was measured using a FlexStation 3 plate reader (Molecular Devices). Plots of A450 versus test compound concentration and IC50 determinations were made using GraphPad Prism 6.

T1 sequence (P17931 whole entry): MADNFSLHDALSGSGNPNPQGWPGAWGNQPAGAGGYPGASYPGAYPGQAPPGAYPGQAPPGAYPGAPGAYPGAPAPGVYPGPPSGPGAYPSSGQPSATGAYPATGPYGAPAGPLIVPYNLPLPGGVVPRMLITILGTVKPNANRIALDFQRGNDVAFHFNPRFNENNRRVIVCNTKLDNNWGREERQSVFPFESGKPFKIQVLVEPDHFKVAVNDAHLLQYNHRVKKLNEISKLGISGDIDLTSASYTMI

| IC50 | SMILES |
| --- | --- |
| 4.6 µM | CNC(=O)[C@@H](OCc1ccc(C(=O)OC)cc1)[C@@H]1OC(CO)[C@H](O)C(n2cc(-c3cc(F)c(F)c(F)c3)nn2)C1O (stereo partly shown) [Compound 29] |
| 4.98 µM | CNC(=O)[C@@H](OCc1ccc(OC(F)(F)F)cc1)[C@@H]1OC(CO)[C@H](O)C(n2cc(-c3cc(F)c(F)c(F)c3)nn2)C1O (stereo partly shown) [Compound 30] |
| 0.18 µM | CNC(=O)[C@@H](OCc1ccc(Cl)c(F)c1)[C@@H]1OC(CO)[C@H](O)C(n2cc(-c3cc(F)c(F)c(F)c3)nn2)C1O (stereo partly shown) [Compound 31] |
| 2.81 µM | CNC(=O)[C@@H](OCc1ccc(OC)cc1)[C@@H]1OC(CO)[C@H](O)C(n2cc(-c3cc(F)c(F)c(F)c3)nn2)C1O (stereo partly shown) [Compound 32] |
| 1.64 µM | CNC(=O)[C@@H](OCc1ccc(C2CC2)cc1)[C@@H]1OC(CO)[C@H](O)C(n2cc(-c3cc(F)c(F)c(F)c3)nn2)C1O (stereo partly shown) [Compound 33] |
| 0.85 µM | CNC(=O)[C@@H](OCc1cccnc1)[C@@H]1OC(CO)[C@H](O)C(n2cc(-c3cc(F)c(F)c(F)c3)nn2)C1O (stereo partly shown) [Compound 34] |
| > 100 µM | CCCCNC(=O)[C@@H](OCc1ccccc1)[C@@H]1OC(CO)[C@H](O)C(n2cc(-c3cc(F)c(F)c(F)c3)nn2)C1O (stereo partly shown) [Compound 35] |
| 3.86 µM | CNC(=O)[C@@H](OCc1ccccc1)[C@@H]1OC(CO)[C@H](O)C(n2cc(-c3cc(F)c(F)c(F)c3)nn2)C1O (stereo partly shown) [Compound 36] |
| 2.61 µM | CNC(=O)[C@@H](OCc1ccccc1)[C@@H]1OC(CO)[C@H](O)[C@H](n2cc(-c3cc(F)c(F)c(F)c3)nn2)C1OC (stereo partly shown) [Compound 40] |
| 9.58 µM | COC1[C@H]([C@H](OCc2ccccc2)C(=O)N(C)C)OC(CO)[C@H](O)[C@@H]1n1cc(-c2cc(F)c(F)c(F)c2)nn1 (stereo partly shown) [Compound 41] |
| 2.06 µM | COC1C(n2cc(-c3cc(F)c(F)c(F)c3)nn2)[C@@H](O)C(CO)O[C@H]1[C@H](OCc1ccc(Cl)cc1)C(=O)N(C)C (stereo partly shown) [Compound 42] |
| 0.23 µM | COC1C(n2cc(-c3cc(F)c(F)c(F)c3)nn2)[C@@H](O)C(CO)O[C@H]1[C@H](OCc1ccc(Cl)cc1)C(=O)Nc1ccccc1F (stereo partly shown) [Compound 69] |
| 0.72 µM | COC1C(n2cc(-c3cc(F)c(F)c(F)c3)nn2)[C@@H](O)C(CO)O[C@H]1[C@H](OCc1ccc(Cl)cc1)C(=O)NCC(F)(F)F (stereo partly shown) [Compound 70] |

Second part, the compound before the results:

| SMILES | IC50 |
| --- | --- |
| COC(=O)[C@@H](OCc1ccccc1)[C@@H]1OC(CO)[C@H](O)C(n2cc(-c3cc(F)c(F)c(F)c3)nn2)C1O (stereo partly shown) [Compound 13] | 3.48 µM |
| CNC(=O)[C@@H](OCc1ccc2ccccc2c1)[C@@H]1OC(CO)[C@H](O)C(n2cc(-c3cc(F)c(F)c(F)c3)nn2)C1O (stereo partly shown) [Compound 16] | 0.53 µM |
| CNC(=O)[C@@H](OCc1cccc(-c2ccccc2)c1)[C@@H]1OC(CO)[C@H](O)C(n2cc(-c3cc(F)c(F)c(F)c3)nn2)C1O (stereo partly shown) [Compound 17] | 2.56 µM |
| CNC(=O)[C@@H](OCc1cccc(C(=O)OC)c1)[C@@H]1OC(CO)[C@H](O)C(n2cc(-c3cc(F)c(F)c(F)c3)nn2)C1O (stereo partly shown) [Compound 18] | 0.67 µM |
| CNC(=O)[C@@H](OCc1ccc(Cl)cc1)[C@@H]1OC(CO)[C@H](O)C(n2cc(-c3cc(F)c(F)c(F)c3)nn2)C1O (stereo partly shown) [Compound 19] | 0.32 µM |
| CNC(=O)[C@@H](OCc1cccc(Cl)c1)[C@@H]1OC(CO)[C@H](O)C(n2cc(-c3cc(F)c(F)c(F)c3)nn2)C1O (stereo partly shown) [Compound 20] | 1.52 µM |
| CNC(=O)[C@@H](OCc1cccc(OC(F)(F)F)c1)[C@@H]1OC(CO)[C@H](O)C(n2cc(-c3cc(F)c(F)c(F)c3)nn2)C1O (stereo partly shown) [Compound 21] | 1.94 µM |
| CNC(=O)[C@@H](OCc1ccc(F)cc1)[C@@H]1OC(CO)[C@H](O)C(n2cc(-c3cc(F)c(F)c(F)c3)nn2)C1O (stereo partly shown) [Compound 24] | 1.72 µM |
| CNC(=O)[C@@H](OCc1ccc(F)c(F)c1)[C@@H]1OC(CO)[C@H](O)C(n2cc(-c3cc(F)c(F)c(F)c3)nn2)C1O (stereo partly shown) [Compound 25] | 1.08 µM |
| CNC(=O)[C@@H](OCc1ccc(C(F)(F)F)cc1)[C@@H]1OC(CO)[C@H](O)C(n2cc(-c3cc(F)c(F)c(F)c3)nn2)C1O (stereo partly shown) [Compound 26] | 0.35 µM |
| CNC(=O)[C@@H](OCc1ccc(F)c(Cl)c1)[C@@H]1OC(CO)[C@H](O)C(n2cc(-c3cc(F)c(F)c(F)c3)nn2)C1O (stereo partly shown) [Compound 27] | 2.09 µM |
| CNC(=O)[C@@H](OCc1ccc(S(C)(=O)=O)cc1)[C@@H]1OC(CO)[C@H](O)C(n2cc(-c3cc(F)c(F)c(F)c3)nn2)C1O (stereo partly shown) [Compound 28] | 0.69 µM |
